According to patent publication US12110279B2, “Triazolones, tetrazolones, and imidazolones, or their salts, and pharmaceutical compositions comprising the same” (Yuhan Corporation, priority 2021, dated 2024):
Where a name gives a salt, the structure may show the parent alone. Read-outs that look alike come from different tables or passages of the source.

Experiments:
Format in all cases: biochemical
[1] = molecular target: T1, recombinant human VAP-1 (Homo sapiens, UniProt Q16853); assay: Amplex Red HRP-coupled amine oxidase activity evaluation, recombinant human VAP-1; conditions: substrate 1 mM benzylamine; 30 min preincubation at 37° C.; read-out: Inhibitory Activity (IC50, nM) human VAP-1
T1 construct: purchased R&D systems
T1 sequence (Q16853 1-763): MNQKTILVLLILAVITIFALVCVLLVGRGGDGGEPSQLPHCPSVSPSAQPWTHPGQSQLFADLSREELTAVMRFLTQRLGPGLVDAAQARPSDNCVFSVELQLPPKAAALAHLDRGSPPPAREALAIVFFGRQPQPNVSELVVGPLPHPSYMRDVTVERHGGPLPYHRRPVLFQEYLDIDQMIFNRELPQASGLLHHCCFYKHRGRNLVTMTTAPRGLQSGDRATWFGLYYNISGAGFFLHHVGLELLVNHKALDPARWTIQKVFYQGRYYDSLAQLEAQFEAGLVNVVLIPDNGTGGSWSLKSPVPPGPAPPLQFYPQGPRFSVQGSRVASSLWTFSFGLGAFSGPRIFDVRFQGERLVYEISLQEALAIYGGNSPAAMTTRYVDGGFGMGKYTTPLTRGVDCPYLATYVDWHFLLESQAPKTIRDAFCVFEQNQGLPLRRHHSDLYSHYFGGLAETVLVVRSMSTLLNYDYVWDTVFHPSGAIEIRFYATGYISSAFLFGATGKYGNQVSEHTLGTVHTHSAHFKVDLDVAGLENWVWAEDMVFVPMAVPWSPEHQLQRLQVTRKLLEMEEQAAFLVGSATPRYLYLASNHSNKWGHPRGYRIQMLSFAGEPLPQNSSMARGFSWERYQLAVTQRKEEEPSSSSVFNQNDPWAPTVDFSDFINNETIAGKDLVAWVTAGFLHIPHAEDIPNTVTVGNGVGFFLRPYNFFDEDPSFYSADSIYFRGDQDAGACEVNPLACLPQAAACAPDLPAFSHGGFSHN
How it was run: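 Inhibition is scored as the % drop in resorufin signal rate relative to uninhibited DMSO control and fitted to a 4-parameter logistic curve for IC50. VAP-1 and compound are preincubated 30 min at 37° C before benzylamine substrate (1 mM in the added mix) is introduced.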

[2] = molecular target: T2, recombinant human MAO-A (monoamine oxidase-A) (Homo sapiens, UniProt P21397); assay: Amplex Red HRP-coupled amine oxidase activity evaluation, recombinant human MAO-A; conditions: substrate 0.5 mM tyramine; read-out: Inhibitory Activity (IC50, nM) MAO-A
T2 construct: purchased Sigma-Aldrich
T2 sequence (P21397 1-527): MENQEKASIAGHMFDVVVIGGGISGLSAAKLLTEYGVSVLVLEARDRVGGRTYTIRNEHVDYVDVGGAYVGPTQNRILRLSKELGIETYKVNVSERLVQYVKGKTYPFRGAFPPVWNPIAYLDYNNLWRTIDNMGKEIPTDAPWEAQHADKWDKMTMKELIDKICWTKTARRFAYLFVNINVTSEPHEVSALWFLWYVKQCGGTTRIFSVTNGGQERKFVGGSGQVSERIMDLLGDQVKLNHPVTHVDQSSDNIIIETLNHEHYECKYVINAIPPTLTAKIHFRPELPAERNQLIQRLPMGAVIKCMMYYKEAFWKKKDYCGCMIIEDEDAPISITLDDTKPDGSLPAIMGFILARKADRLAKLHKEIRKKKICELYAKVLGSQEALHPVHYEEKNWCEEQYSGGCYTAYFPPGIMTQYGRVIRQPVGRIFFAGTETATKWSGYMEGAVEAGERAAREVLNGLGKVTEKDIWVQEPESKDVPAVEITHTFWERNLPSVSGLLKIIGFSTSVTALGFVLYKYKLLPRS

[3] = molecular target: T3, recombinant human MAO-B (monoamine oxidase-B) (Homo sapiens, UniProt P27338); assay: Amplex Red HRP-coupled amine oxidase activity evaluation, recombinant human MAO-B; conditions: substrate 1 mM benzylamine; read-out: Inhibitory Activity (IC50, nM) MAO-B
T3 construct: purchased Sigma-Aldrich
T3 sequence (P27338 1-520): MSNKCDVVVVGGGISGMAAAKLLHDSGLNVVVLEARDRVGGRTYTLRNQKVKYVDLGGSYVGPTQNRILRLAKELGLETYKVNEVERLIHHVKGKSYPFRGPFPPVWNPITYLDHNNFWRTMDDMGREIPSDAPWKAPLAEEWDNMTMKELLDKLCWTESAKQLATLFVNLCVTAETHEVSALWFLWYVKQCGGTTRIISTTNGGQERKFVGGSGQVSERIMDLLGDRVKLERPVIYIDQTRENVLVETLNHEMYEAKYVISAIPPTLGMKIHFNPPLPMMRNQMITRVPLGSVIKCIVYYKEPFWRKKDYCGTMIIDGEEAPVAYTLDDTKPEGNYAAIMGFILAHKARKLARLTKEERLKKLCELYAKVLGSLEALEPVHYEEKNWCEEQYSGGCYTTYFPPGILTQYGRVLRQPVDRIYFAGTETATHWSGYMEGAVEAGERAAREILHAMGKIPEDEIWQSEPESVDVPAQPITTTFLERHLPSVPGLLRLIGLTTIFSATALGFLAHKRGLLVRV

[4] = molecular target: T4, recombinant human DAO (diamine oxidase) (Homo sapiens, UniProt P19801); assay: Amplex Red HRP-coupled amine oxidase activity evaluation, recombinant human DAO
T4 construct: purchased R&D systems
T4 sequence (P19801 20-751): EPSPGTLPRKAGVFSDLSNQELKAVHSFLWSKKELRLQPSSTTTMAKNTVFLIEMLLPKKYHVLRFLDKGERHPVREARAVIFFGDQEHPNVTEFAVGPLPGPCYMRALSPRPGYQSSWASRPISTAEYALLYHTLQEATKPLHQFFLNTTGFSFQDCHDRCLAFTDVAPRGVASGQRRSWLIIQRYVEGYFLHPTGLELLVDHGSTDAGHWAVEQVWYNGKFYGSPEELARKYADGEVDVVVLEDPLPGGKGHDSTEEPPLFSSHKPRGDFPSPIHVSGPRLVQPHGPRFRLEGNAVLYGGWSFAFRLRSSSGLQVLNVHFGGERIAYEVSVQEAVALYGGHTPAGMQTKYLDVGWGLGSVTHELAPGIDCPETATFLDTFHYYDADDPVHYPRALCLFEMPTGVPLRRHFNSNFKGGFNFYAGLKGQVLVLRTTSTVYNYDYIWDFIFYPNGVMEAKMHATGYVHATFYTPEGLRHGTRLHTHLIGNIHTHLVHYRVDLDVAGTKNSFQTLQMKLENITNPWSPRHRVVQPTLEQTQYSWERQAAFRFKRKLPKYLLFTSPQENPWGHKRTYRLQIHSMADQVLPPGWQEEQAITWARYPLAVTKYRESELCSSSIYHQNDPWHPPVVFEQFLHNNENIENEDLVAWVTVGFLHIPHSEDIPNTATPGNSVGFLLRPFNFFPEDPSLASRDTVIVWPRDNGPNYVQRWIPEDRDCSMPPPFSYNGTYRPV

[5] = substrate 1 mM putrescine, read-out: Inhibitory Activity (IC50, nM) DAO

| IC50 [1] [nM] | IC50 [2] [nM] | IC50 [3] [nM] | IC50 [4, 5] [nM] | IC50 [4] [nM] | SMILES |
| --- | --- | --- | --- | --- | --- |
| 0.6 | > 100000 | 53900 | 12500 | – | CCn1cc(-c2cccc(Cn3nnn(CC(CN)=C(F)F)c3=O)c2)ccc1=O [Example 34, 5-[3-[[4-[2-(aminomethyl)-3,3-difluoro-allyl]-5-oxo-tetrazol-1-yl]methyl]phenyl]-1-ethyl-pyridin-2-one trifluoroacetate] |
| 1.5 | > 100000 | > 100000 | > 100000 | – | CCn1cc(-c2ccc(Cn3c(C)nn(CC(CN)=C(F)F)c3=O)s2)ccc1=O [Example 4, 5-[5-[[1-[2-(aminomethyl)-3,3-difluoro-allyl]-3-methyl-5-oxo-1,2,4-triazol-4-yl]methyl]-2-thienyl]-1-ethyl-pyridin-2-one trifluoroacetate] |
| 2 | > 100000 | > 100000 | > 100000 | – | Cc1nn(CC(CN)=C(F)F)c(=O)n1Cc1ccc(-c2ccc(N(C)C)nc2)s1 [Example 5, 2-[2-(aminomethyl)-3,3-difluoro-allyl]-4-[[5-[6-(dimethylamino)-3-pyridyl]-2-thienyl]methyl]-5-methyl-1,2,4-triazol-3-one trifluoroacetate] |
| 0.7 | 80100 | 14300 | 159 | – | CN(C)c1ccc(-c2cccc(Cn3nnn(CC(CN)=C(F)F)c3=O)c2)cn1 [Example 29, 1-[2-(aminomethyl)-3,3-difluoro-allyl]-4-[[3-[6-(dimethylamino)-3-pyridyl]phenyl]methyl]tetrazol-5-one trifluoroacetate] |
| 1.8 | > 100000 | > 100000 | > 100000 | – | Cc1nn(CC(CN)=C(F)F)c(=O)n1Cc1ccc(-c2ccc(S(C)(=O)=O)cc2)s1 [Example 2, 2-[2-(aminomethyl)-3,3-difluoro-allyl]-5-methyl-4-[[5-(4-methylsulfonylphenyl)-2-thienyl]methyl]-1,2,4-triazol-3-one trifluoroacetate] |
| 1.9 | > 100000 | 63100 | 206 | – | CN1C(=O)CCc2cc(-c3ccc(Cn4ccn(CC(CN)=C(F)F)c4=O)s3)ccc21 [Example 51, 6-[5-[[3-[2-(aminomethyl)-3,3-difluoro-allyl]-2-oxo-imidazol-1-yl]methyl]-2-thienyl]-1-methyl-3,4-dihydroquinolin-2-one trifluoroacetate] |
| 1 | > 100000 | > 100000 | > 100000 | – | Cc1nn(CC(CN)=C(F)F)c(=O)n1Cc1ccc(-c2ccc3c(c2)CCC(=O)N3C)s1 [Example 8, 6-[5-[[1-[2-(aminomethyl)-3,3-difluoro-allyl]-3-methyl-5-oxo-1,2,4-triazol-4-yl]methyl]-2-thienyl]-1-methyl-3,4-dihydroquinolin-2-one trifluoroacetate] |
| 0.3 | 81400 | 3990 | 122 | – | CN1C(=O)CCc2cc(-c3cccc(Cn4nnn(CC(CN)=C(F)F)c4=O)c3)ccc21 [Example 33, 6-[3-[[4-[2-(aminomethyl)-3,3-difluoro-allyl]-5-oxo-tetrazol-1-yl]methyl]phenyl]-1-methyl-3,4-dihydroquinolin-2-one trifluoroacetate] |
| 0.4 | > 100000 | 2320 | 811 | – | CCn1cc(-c2cccc(Cn3nnn(CC(CN)=C(F)F)c3=O)c2)cn1 [Example 32, 1-[2-(aminomethyl)-3,3-difluoro-allyl]-4-[[3-(1-ethylpyrazol-4-yl)phenyl]methyl]tetrazol-5-one trifluoroacetate] |
| 1 | > 100000 | 43500 | – | 113 | CCn1cc(-c2cccc(-n3nnn(CC(CN)=C(F)F)c3=O)c2)cn1 [Example 15, 1-[2-(aminomethyl)-3,3-difluoro-allyl]-4-[3-(1-ethylpyrazol-4-yl)phenyl]tetrazol-5-one trifluoroacetate] |
| 0.4 | 72800 | 19700 | 911 | – | CS(=O)(=O)c1ccc(-c2ccc(Cn3nnn(CC(CN)=C(F)F)c3=O)s2)cc1 [Example 43, 1-[2-(aminomethyl)-3,3-difluoro-allyl]-4-[[5-(4-methylsulfonylphenyl)-2-thienyl]methyl]tetrazol-5-one trifluoroacetate] |
| 0.6 | 49200 | 7210 | 1870 | – | Cc1cc(-c2ccc(Cn3nnn(CC(CN)=C(F)F)c3=O)s2)cc2c1NC(=O)CC2 [Example 45, 6-[5-[[4-[2-(aminomethyl)-3,3-difluoro-allyl]-5-oxo-tetrazol-1-yl]methyl]-2-thienyl]-8-methyl-3,4-dihydro-1H-quinolin-2-one trifluoroacetate] |
| 0.9 | > 100000 | > 100000 | – | 10 | CCn1cc(-c2cccc(-n3nnn(CC(CN)=C(F)F)c3=O)c2)ccc1=O [Example 12, 5-[3-[4-[2-(aminomethyl)-3,3-difluoro-allyl]-5-oxo-tetrazol-1-yl]phenyl]-1-ethyl-pyridin-2-one di-trifluoroacetate] |
| 0.3 | 98400 | 74 | – | 95 | CCn1cc(-c2ccc(-n3nnn(CC(CN)=C(F)F)c3=O)cc2)cn1 [Example 22, 1-[2-(aminomethyl)-3,3-difluoro-allyl]-4-[4-(1-ethylpyrazol-4-yl)phenyl]tetrazol-5-one trifluoroacetate] |
